Test results as given in publication PMC4774534 (Antiviral Research, 2015).
Structures can show the parent of a compound that is named as a salt. Where two headings read alike, the source gives them in different places.

Tests used:
[1] = system: SARS-CoV S pseudotyped virus on 293T-ACE2 cells; format: cell-based; conditions: read-out: HIV-luc (SARS-CoV S) IC50
[2] = system: EBOV pseudotyped virus on 293T-ACE2 cells; format: cell-based; conditions: read-out: HIV-luc (EBOV GP) IC50
[3] = system: replication competent SARS-CoV (Urbani and Toronto-2); format: cell-based
[4] = system: SARS-CoV Toronto-2 strain in Vero 76 cells; format: cell-based; conditions: read-out: Virus yield reduction IC90
[5] = system: SARS-CoV Urbani strain in Vero 76 cells; format: cell-based; conditions: read-out: CPE inhibition IC50
[6] = system: SARS-CoV Urbani strain in Vero 76 cells; format: cell-based; conditions: read-out: Virus yield reduction IC90
[7] = system: SARS-CoV Urbani strain in Vero 76 cells; format: cell-based; conditions: read-out: Neutral red (NR) assay IC50
[8] = system: SARS-CoV Toronto-2 strain in Vero 76 cells; format: cell-based; conditions: read-out: CPE inhibition IC50
[9] = system: SARS-CoV Toronto-2 strain in Vero 76 cells; format: cell-based; conditions: read-out: Neutral red (NR) assay IC50
[10] = system: VSV-G pseudovirus on 293T-CD13 cells transiently expressing TMPRSS2; format: cell-based
[11] = system: Ebola pseudovirus on 293T-CD13 cells transiently expressing TMPRSS2; format: cell-based, EBOV

Compound | IC50 [1] [nM] | IC50 [2] [nM] | other results
O=C(N[C@H](/C=C/S(=O)(=O)c1ccccc1)CCc1ccccc1)[C@H](Cc1ccccc1)NC(=O)N1CCN(c2ccccc2)CC1 [SMDC-256158, (2S)-N-[(1E,3S)-1-(benzenesulfonyl)-5-phenylpent-1-en-3-yl]-2-{[(E)-4-phenylpiperazine-1-carbonyl]amino}-3-phenylpropanamide] | 2.49 ± 0.34 | 2.69 ± 0.43 | –
CC(C)N1CCN(C(=O)N[C@@H](Cc2ccccc2)C(=O)N[C@H](/C=C/S(=O)(=O)c2ccccc2)CCc2ccccc2)CC1 [SMDC-256123, (2S)-N-[(1E,3S)-1-(benzenesulfonyl)-5-phenylpent-1-en-3-yl]-2-{[(E)-4-(propan-2-yl)piperazine-1-carbonyl]amino}-3-phenylpropanamide] | 0.11 ± 0.01 | 0.25 ± 0.07 | –
(2S)-N-[(1E,3S)-1-(benzenesulfonyl)-5-phenylpent-1-en-3-yl]-2-{[(E)-4-tert-butylpiperazine-1-carbonyl]amino}-3-phenylpropanamide [SMDC-256160] | 0.08 ± 0.01 | 0.11 ± 0.03 | 90% reduction in viral yields, range over strains [3]: 0.49 to 12.2 µM; IC50 ([3]; read-out: IC50 values, range over strains and readouts): 50 to 320 nM; IC90 [4]: 12200 nM; IC50 [5]: < 80 nM; IC90 [6]: 490 nM; IC50 [7]: < 130 nM; IC50 [8]: < 50 nM; IC50 [9]: 320 nM
COCCN1CCN(C(=O)N[C@@H](Cc2ccccc2)C(=O)N[C@H](/C=C/S(=O)(=O)c2ccccc2)CCc2ccccc2)CC1 [SMDC-256159, (2S)-N-[(1E,3S)-1-(benzenesulfonyl)-5-phenylpent-1-en-3-yl]-2-{[(E)-4-(2-methoxyethyl)piperazine-1-carbonyl]amino}-3-phenylpropanamide] | 0.07 ± 0.02 | 0.16 ± 0.02 | 90% reduction in viral yields, range over strains [3]: <0.48 to 7.1 µM; IC50 [5]: 650 ± 810 nM; IC90 [6]: 7100 ± 7600 nM; IC50 [7]: < 2260 nM; IC50 [8]: < 480 nM; IC50 [9]: 650 nM
CN(C)C(=O)COC(=O)Cc1ccc(OC(=O)c2ccc(NC(=N)N)cc2)cc1 [camostat, camostat mesylate] | – | – | effect on VSV-G driven viral entry [10]: no impact; effect on Ebola pseudovirus infection [11]: no impact
CCCN1CCN(C(=O)N[C@@H](Cc2ccccc2)C(=O)N[C@H](/C=C/S(=O)(=O)c2ccccc2)CCc2ccccc2)CC1 [SMDC-256157, (2S)-N-[(1E,3S)-1-(benzenesulfonyl)-5-phenylpent-1-en-3-yl]-2-{[(E)-4-propylylpiperazine-1-carbonyl]amino}-3-phenylpropanamide] | 0.24 ± 0.03 | 0.42 ± 0.03 | –
CCN1CCN(C(=O)N[C@@H](Cc2ccccc2)C(=O)N[C@H](/C=C/S(=O)(=O)c2ccccc2)CCc2ccccc2)CC1 [SMDC-256122, (2S)-N-[(1E,3S)-1-(benzenesulfonyl)-5-phenylpent-1-en-3-yl]-2-{[(E)-4-ethylpiperazine-1-carbonyl]amino}-3-phenylpropanamide] | 0.04 ± 0.01 | 0.12 ± 0.01 | –
O=C(N[C@H](/C=C/S(=O)(=O)c1ccccc1)CCc1ccccc1)[C@H](Cc1ccccc1)NC(=O)N1CCN(C2CCCC2)CC1 [SMDC-256161, (2S)-N-[(1E,3S)-1-(benzenesulfonyl)-5-phenylpent-1-en-3-yl]-2-{[(E)-4-cyclopentylpiperazine-1-carbonyl]amino}-3-phenylpropanamide] | 0.25 ± 0.16 | 0.18 ± 0.01 | –
O=C(N[C@H](/C=C/S(=O)(=O)c1ccccc1)CCc1ccccc1)[C@H](Cc1ccccc1)NC(=O)N1CCN(CC2CC2)CC1 [SMDC-256162, (2S)-N-[(1E,3S)-1-(benzenesulfonyl)-5-phenylpent-1-en-3-yl]-2-{[(E)-4-(cyclopropylmethyl)piperazine-1-carbonyl]amino}-3-phenylpropanamide] | 0.16 ± 0.03 | 0.1 ± 0.01 | –
